From US20030096823A1, “Method for the treatment of cardiotoxicity induced by antitumor compounds” (priority 2001, published 2003)

Tested on: heart (myocardial damage) of Crl:CD-1 (ICR) BR female mice
Test: cardiotoxicity in the Bertazzoli mouse model
Assay type: in vivo
Settings: intravenous, expected
Description: Animals/group: 15 Crl:CD-1 (ICR) BR female mice, about 4 weeks old at the start of treatment, will be used.
Test and control articles and formulations: Epi and rmuAb will be dissolved in normal saline (saline) and distilled water for injection (water), respectively, at the requested concentrations; dex will be dissolved in M/6 sodium lactate at the requested concentration; control animals will receive the above vehicles alone.
Dose levels and justification: The doses of 5 mg/kg/day for epi and 50 mg/kg/day for dex (epi/dex ratio: 1:10) are selected on the basis of the results of previous cardiotoxicity studies in mice. […] The two doses of rmuAb will be decided on the basis of the results of two preliminary studies performed to assess its toxicity and cardiotoxic potential in the above strain of mice.
Administration route: intravenous, via a tail vein, for epi, dex and rmuAb.
Study duration and treatment schedule: Twice a week at weeks 1, 2, 5, 6, and 7 for epi and dex; twice a week for 7 weeks for rmuAb. Dex will be given 30 minutes before epi. […]
Clinical observations and post-mortem examinations: Mortality, clinical signs and general condition will be recorded daily and body weight weekly. […] Cardiomyopathy will be evaluated by scoring the severity and extent of the myocardial lesions according to a qualitative/quantitative score. […]

Compound | cardiotoxicity induced (5 mg/kg/day epi) | effect on myocardial damage produced by epi (50 mg/kg/day dex, 30 minutes before epi)
COc1cccc2c1C(=O)c1c(O)c3c(c(O)c1C2=O)C[C@@](O)(C(=O)CO)C[C@@H]3O[C@H]1C[C@H](N)[C@@H](O)[C@H](C)O1 [epi, epirubicin] | moderate/marked cardiotoxicity | –
C[C@@H](CN1CC(=O)NC(=O)C1)N1CC(=O)NC(=O)C1 [dex, dexrazoxane] | – | significantly reduce the myocardial damage
